Converted amounts (≈) assume the structure as drawn. Where two headings read alike, the source gives them in different places.
Assays:
[1] = DPPH radical scavenging assay; conditions: DPPH 0.1 mM in methanol, 25°C, 30 min
Description: DPPH radical scavenging assay as described by Ha. The hydrogen atom donating ability of the plant extractives was determined by the decolorization of methanol solution of 2,2-diphenyl-1-picrylhydrazyl (DPPH). DPPH produces purple color in methanol solution and fades to shades of yellow color in the presence of antioxidants. […]
DPPH (0.1 mM) was diluted in methanol. 200 μL of this solution was added to 1.3 μL of various concentrations of compounds in DMSO (256.0, 64.0, 16.0, and 4.0 μg/mL). The mixture was performed by a 96-well plate at 25 °C in 30 min. Then, absorbance was determined by Epoch™ Microplate Spectrophotometer (at 517 nm). The percentage of DPPH quenching activity was computed by the following formula:
Inhibitory percentage SC (%) = [(Ao - A1)/Ao] × 100. where AO was defined as the absorbance of control reaction, and A1 represented for the absorbance in the presence of test or standard sample. Each experiment was repeated three times. Quercetin was used as a reference compound. […]

[2] = system: Escherichia coli (ATCC 25922); assay: Antimicrobial broth microdilution; format: cell-based; conditions: ATCC25922, E. coli
Description: (§1) Table S2. The result of antimicrobial tests of compounds 38, 45, 48 and 50.
(§2) Gram (+) strains Gram (-) strains Fungi
(§3) Compound Values (µg/ml) S. aureus B. L. S. E. P. C. subtilis fermentum enterica coli aeruginosa albican
(§4) The antimicrobial activity was determined by broth microdilution method as reported by. Broth dilution testing is one of the common methods used for determination of the MICs and IC50. The compounds are examined for visible bacterial growth as evidenced by turbidity. […]
(§5) S1.5. In vitro antimicrobial activity study of compounds 38, 45, 48 and 50 The Gram-positive bacteria: Bacillus subtilis (ATCC 6633), Lactobacillus fermentum (N4), Staphylococcus aureus (ATCC 13709); Gram -negative bacteria: Escherichia coli (ATCC 25922), Pseudomonas aeruginosa (ATCC 15442), Salmonella enterica; Yeast: Candida albicans (ATCC 10231) were obtained from American Type Culture Collection. The bacterial […]
(§6) Sabourand 2% dextrose broth, were purchased from Merck. […]
(§7) remaining at –80 0 C. Before assay, they were activated by culture medium and, adjusted the concentration to 5x10^5 CFU/mL. 10 μL of each concentration of each test […]
(§8) further incubated at 37 °C within 16-24h. The experiment was triplicated. Positive […]
(§9) medium without bacteria as a negative control. Ampicillin was used as a reference […]
(§10) inhibiting 50% the visible growth of the tested microorganisms. MIC, IC50 values are typically expressed as molar concentration. […]
(§11) treated with sample different concentrations on 96-well plates. Untreated cells represented the controls. […]
(§12) crystals are visible. Remove MTT and add DMSO solution (100 μL). The optical density […]
(§13) are evaluated to have cytotoxic activity.

[3] = system: Staphylococcus aureus (ATCC 13709); assay: Antimicrobial broth microdilution; format: cell-based; conditions: ATCC13709, S. aureus
Description: as §1, §2, §3, §4, §5, §6, §7, §8, §9, §10, §11, §12, §13

[4] = system: Bacillus subtilis (ATCC 6633); assay: Antimicrobial broth microdilution; format: cell-based; conditions: ATCC6633, B. subtilis
Description: as §1, §2, §3, §4, §5, §6, §7, §8, §9, §10, §11, §12, §13

[5] = system: Candida albicans (ATCC 10231); assay: Antimicrobial broth microdilution; format: cell-based; conditions: ATCC10231, C. albican
Description: as §1, §2, §3, §4, §5, §6, §7, §8, §9, §10, §11, §12, §13

[6] = system: Lactobacillus fermentum (N4); assay: Antimicrobial broth microdilution; format: cell-based; conditions: L. fermentum
Description: as §1, §2, §3, §4, §5, §6, §7, §8, §9, §10, §11, §12, §13

[7] = system: Pseudomonas aeruginosa (ATCC 15442); assay: Antimicrobial broth microdilution; format: cell-based; conditions: ATCC15442, P. aeruginosa
Description: as §1, §2, §3, §4, §5, §6, §7, §8, §9, §10, §11, §12, §13

Salmonella enterica = assay: Antimicrobial broth microdilution; format: cell-based; conditions: S. enterica
Description: as §1, §2, §3, §4, §5, §6, §7, §8, §9, §10, §11, §12, §13

MTT cytotoxicity assay = conditions: human
Description: The cytotoxic activity of compounds was evaluated against four cancer cell lines KB, Hep-G2, Lu-1 and MCF-7, using colorimetric MTT assay. […]
MTT assay was used to determine the cytotoxic activity of compounds with human cancer cell lines acquired from the American Type Culture Collection (ATCC): epidermoid carcinoma (KB, ATCC number CCL-17), hepatocellular carcinoma (HepG2, ATCC number HB-8065), lung adenocarcinoma LU-1 (ATCC number HTB - 57TM), breast adenocarcinoma MCF-7 (ATCC number HTB - 22TM. Cells were cultured in medium DMEM supplemented with 10% Fetal bovine serum (FBS), 1% Penicillin and Streptomycin and 1% L-glutamine, under a humidified atmosphere of 5% CO2 at 37°C.
Compounds were dissolved in DMSO at 40 mg/mL and a series of dilutions for each compound was prepared to final concentrations of 256, 64, 16, 4 and 1 μg/mL. Cells were separated with trypsin and seeded in each well with 3 x10^4 cells per ml and were treated with sample different concentrations on 96-well plates. Untreated cells represented the controls. After 72h of treatment, an MTT solution (10 μl, 5 mg/mL) of phosphate buffer was added to each well for 4 h until intracellular purple formazan crystals are visible. Remove MTT and add DMSO solution (100 μL). The optical density of the solution was determined by Epoch™ Microplate Spectrophotometer at 540 nm. The inhibition ratio was calculated based on the optical densities from the three replicate […]
as §13

[8] = biological target: T1, yeast α-GLy (α-glucosidase, Sigma G0660) (Saccharomyces cerevisiae, UniProt P53341); assay: biochemical; format: biochemical; conditions: yeast α-glucosidase, 37°C, pH 6.8
T1 construct: purchased Sigma G0660
Description: S1. Materials and Methods […]
glucosidase inhibition assay. α-Glucosidase enzyme inhibition assay was carried out in a 96-well microplate. The method’s principle based on the hydrolyzed reaction of 4-nitrophenyl-α-D-glucopiranoside with α-glucosidase enzyme into yellow 4- […]
p-Nitrophenyl α-D-Glucoside a- Gl ucosidas e α-D-Glucose + p- Nitrophenol α-Glucosidase inhibitory activity assay was performed following the modified method of Pistia Brueggeman and Hollingsworth with slight modification. Quinopimaric […]
concentrations of 256, 64, 16, 4 and 1 µg/mL. In a 96-well plate, a reaction mixture containing 20 μL of phosphate buffer (100 mM; pH 6.8), 20 μL of α-glucosidase (0.3 U/mL, Sigma G0660) (this concentration was determined by a series of α-glucosidase […]
linearity between the enzyme concentration and the absorbance of yellow color mixture after reaction which was approximately 5-fold higher than the back ground and at least […]
concentrations was pre-incubated for 10 min at 37°C. Then 20 μL of […] p-nitrophenyl α-D-glucopyranoside (Sigma N1377) was added to the mixture as a substrate. After further incubation at 37°C for 30 min, the reaction was stopped by adding 80 μL of 0.1 […]
solution were prepared using the phosphate buffer […]; pH 6.8. […]
as a positive control and water as negative control. The yellow color produced was quantitated by colorimetric analysis and reading the absorbance at 410 nm. Each experiment was performed in triplicates, along with appropriate blanks. The solvent DMSO was use as negative control to evaluate its effect on α-glucosidase activity. […]
or substrate in negative control. Back ground was determined by volume of buffer as […]
The % inhibition has been obtained using the formula:
% inhibition = {Absorbance (control) –Absorbance (sample)}/Absorbance (control) IC50 value is defined as the concentration of samples inhibiting 50% of α-glucosidase activity under the stated assay conditions. […]

[9] = Hep-G2 hepatocellular carcinoma cells (ATCC HB-8065)
[10] = KB epidermoid carcinoma cells (ATCC CCL-17)
[11] = Lu-1 lung adenocarcinoma cells (ATCC HTB-57)
[12] = MCF-7 breast adenocarcinoma cells (ATCC HTB-22)
[13] = IC50 ± SE, α-glucosidase inhibition

T1 sequence (P53341 whole entry): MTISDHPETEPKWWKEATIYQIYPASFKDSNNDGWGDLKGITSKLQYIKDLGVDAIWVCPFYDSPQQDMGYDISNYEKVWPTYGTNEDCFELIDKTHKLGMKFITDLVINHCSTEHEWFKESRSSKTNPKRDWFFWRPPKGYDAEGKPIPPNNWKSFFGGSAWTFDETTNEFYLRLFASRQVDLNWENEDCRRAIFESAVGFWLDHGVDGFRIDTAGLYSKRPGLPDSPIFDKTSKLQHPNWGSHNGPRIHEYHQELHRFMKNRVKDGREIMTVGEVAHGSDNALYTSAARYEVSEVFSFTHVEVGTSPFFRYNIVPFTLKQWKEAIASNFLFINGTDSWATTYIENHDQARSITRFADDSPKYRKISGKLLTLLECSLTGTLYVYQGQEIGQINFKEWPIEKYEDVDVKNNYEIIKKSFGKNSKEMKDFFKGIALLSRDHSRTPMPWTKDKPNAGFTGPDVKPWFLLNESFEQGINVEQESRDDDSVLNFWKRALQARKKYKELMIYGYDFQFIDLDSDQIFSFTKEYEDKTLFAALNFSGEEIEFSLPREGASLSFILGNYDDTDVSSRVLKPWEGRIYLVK

SMILES | IC50 values, antioxidant test (DPPH) [1] | melting point | IC50 [2] | MIC [2] | IC50 [3] | MIC [3] | IC50 [4] | MIC [4] | IC50 [5] | MIC [5] | IC50 [6] | MIC [6] | IC50 [7] | MIC [7] | IC50 (Salmonella enterica) | MIC (Salmonella enterica) | IC50 at 72 h (MTT cytotoxicity assay; [9]) | IC50 at 72 h (MTT cytotoxicity assay; [10]) | IC50 at 72 h (MTT cytotoxicity assay; [11]) | IC50 at 72 h (MTT cytotoxicity assay; [12]) | other results
C#CCOC(=O)C1(C)CCCC2(C)C1CCC13C=C(C(C)C)C(CC12)C1=C3C(=O)C=CC1=O (centres unmarked) [Compound 48, Propynyl 13-isopropyl-7,10a-dimethyl-1,4-di oxo-4,5,6,6a,7,8,9,10,10a,10b,11,12-dodecahydro-1H-4b,12-ethenochrysene-7-carboxylate] | 177.45 ± 3.5 mg/L (≈ 397 µM) | 85 to 89 °C | > 256 mg/L | > 256 mg/L | 8.29 ± 0.58 mg/L (≈ 18.6 µM) | 64 mg/L (≈ 143 µM) | 45 ± 2.18 mg/L (≈ 101 µM) | 256 mg/L (≈ 573 µM) | > 256 mg/L | > 256 mg/L | 43.5 ± 2.52 mg/L (≈ 97.5 µM) | 256 mg/L (≈ 573 µM) | > 256 mg/L | > 256 mg/L | > 256 mg/L | > 256 mg/L | 46 ± 0.8 mg/L (≈ 103 µM) | 30.5 ± 0.7 mg/L (≈ 68.3 µM) | 10.2 ± 0.18 mg/L (≈ 22.7 µM) | 39.2 ± 0.78 mg/L (≈ 87.9 µM) | IC50 [8, 13]: 0.68 ± 0.045 µM
Cc1[nH]c2c3c(c(O)cc2c1CO)[C@H]1C[C@@H]2[C@@]4(C)CCC[C@@](C)(CO)[C@@H]4CC[C@@]32C=C1C(C)C [Compound 38] | 227.76 ± 4.9 mg/L (≈ 491 µM) |  | > 256 mg/L | > 256 mg/L | 34.3 ± 1.75 mg/L (≈ 74 µM) | > 256 mg/L | 102 ± 7.21 mg/L (≈ 221 µM) | 256 mg/L (≈ 552 µM) | > 256 mg/L | > 256 mg/L | > 256 mg/L | > 256 mg/L | > 256 mg/L | > 256 mg/L | > 256 mg/L | > 256 mg/L | 50.8 ± 1.2 mg/L (≈ 110 µM) | 39.5 ± 1 mg/L (≈ 85.3 µM) | 58.1 ± 1.8 mg/L (≈ 125 µM) | 60.4 ± 1.6 mg/L (≈ 130 µM) | IC50 ([8]; read-out: IC50 ± SE, α-glucosidase inhibition): 0.39 ± 0.03 µM
CC(C)C1=CC23CCC4C(C)(C(=O)O)CCCC4(C)C2CC1c1c(OCCC#N)ccc(OCCC#N)c13 (centres unmarked) [Compound 50, 1,4-Bis(2′-cyanoethoxy)-13-isopropyl-7,10a-dimethyl-6,6a,7,8,9,10,10a,10b,11,12-decahydro-5H-4b,12-ethenochrysene-7-carboxylic acid] | 105.50 ± 2.2 mg/L (≈ 204 µM) | 157 to 159 °C | > 256 mg/L | > 256 mg/L | 11 ± 0.83 mg/L (≈ 21.3 µM) | 64 mg/L (≈ 124 µM) | 11.3 ± 0.77 mg/L (≈ 21.8 µM) | 64 mg/L (≈ 124 µM) | > 256 mg/L | > 256 mg/L | 116 ± 6.93 mg/L (≈ 224 µM) | > 256 mg/L | > 256 mg/L | > 256 mg/L | > 256 mg/L | > 256 mg/L | 110 ± 2.6 mg/L (≈ 213 µM) | 57.3 ± 1.2 mg/L (≈ 111 µM) | 69.8 ± 1.5 mg/L (≈ 135 µM) | 158 ± 4 mg/L (≈ 305 µM) | IC50 [8, 13]: 0.23 ± 0.01 µM

Reference: paper PMC9655717, “New Molecules of Diterpene Origin with Inhibitory Properties toward α-Glucosidase” (International Journal of Molecular Sciences, 2022)
